Active and inactive are the calls of the source. For most assays here, no stated cut-off is given here; in the data, active = IC50 of 10 µM or less and inactive = more.
What was measured:
[1] = molecular target: T1, Methionyl-tRNA synthetase, putative (Trypanosoma brucei brucei, UniProt Q38C91); format: functional, Trypanosoma brucei brucei strain 927/4 GUTat10.1
T1 sequence (Q38C91 whole entry): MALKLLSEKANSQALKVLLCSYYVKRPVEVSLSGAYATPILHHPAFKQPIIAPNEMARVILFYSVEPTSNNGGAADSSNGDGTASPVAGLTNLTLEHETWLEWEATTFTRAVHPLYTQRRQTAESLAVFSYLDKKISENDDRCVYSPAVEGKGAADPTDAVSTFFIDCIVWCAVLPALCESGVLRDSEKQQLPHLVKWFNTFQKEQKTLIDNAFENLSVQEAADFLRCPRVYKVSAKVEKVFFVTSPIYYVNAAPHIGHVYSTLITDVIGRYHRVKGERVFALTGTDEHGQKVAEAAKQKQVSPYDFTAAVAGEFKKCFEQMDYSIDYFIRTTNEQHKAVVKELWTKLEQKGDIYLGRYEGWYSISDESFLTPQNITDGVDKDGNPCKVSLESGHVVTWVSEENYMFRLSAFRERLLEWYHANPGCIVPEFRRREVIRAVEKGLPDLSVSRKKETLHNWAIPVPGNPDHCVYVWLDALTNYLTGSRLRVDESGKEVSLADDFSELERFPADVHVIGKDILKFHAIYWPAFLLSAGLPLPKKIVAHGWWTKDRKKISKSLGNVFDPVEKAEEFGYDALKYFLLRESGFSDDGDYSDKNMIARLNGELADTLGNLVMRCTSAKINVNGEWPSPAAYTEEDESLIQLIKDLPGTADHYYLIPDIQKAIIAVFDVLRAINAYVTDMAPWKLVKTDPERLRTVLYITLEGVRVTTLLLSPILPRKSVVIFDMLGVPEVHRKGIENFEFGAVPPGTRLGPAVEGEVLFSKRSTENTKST

[2] = molecular target: T1, Methionyl-tRNA synthetase, putative; format: functional, Trypanosoma brucei brucei strain 927/4 GUTat10.1; remark: listed apart in the source
[3] = Counterscreen for inhibitors of Trypanosoma brucei methionyl tRNA synthetase (MetRS): Luminescence-based cell-based high throughput dose response assay to identify compounds that are cytotoxic to Jurkat human T lymphocyte cells.; format: functional
[4] = molecular target: Potassium voltage-gated channel subfamily KQT member 2 (Rattus norvegicus, UniProt O88943); test: blockers of KCNQ2 channel current – cell-based, automated electrophysiology, set II, rat KCNQ2, dose response (AID 588637); format: functional
[5] = molecular target: T2, Corticotropin-releasing factor receptor 2/Corticotropin-releasing factor-binding protein (Homo sapiens, UniProt P24387+Q13324); test: activators of CRF receptor 2 with binding protein – uHTS hits, confirmation (AID 602473); format: functional; conditions: read-out: EC50_Mean
T2 sequence (Q13324 whole entry): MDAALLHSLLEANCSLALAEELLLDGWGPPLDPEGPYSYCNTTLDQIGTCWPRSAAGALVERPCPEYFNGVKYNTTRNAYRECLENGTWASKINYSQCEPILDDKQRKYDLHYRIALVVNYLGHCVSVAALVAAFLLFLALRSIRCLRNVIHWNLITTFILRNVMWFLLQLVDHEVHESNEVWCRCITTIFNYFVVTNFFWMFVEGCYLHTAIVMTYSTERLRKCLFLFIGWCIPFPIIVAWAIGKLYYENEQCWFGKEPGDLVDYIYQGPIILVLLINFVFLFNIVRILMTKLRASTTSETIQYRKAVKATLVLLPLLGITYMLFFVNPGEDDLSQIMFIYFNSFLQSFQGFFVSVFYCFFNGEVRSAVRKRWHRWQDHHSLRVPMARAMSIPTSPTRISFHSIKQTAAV
T2 sequence (P24387 whole entry): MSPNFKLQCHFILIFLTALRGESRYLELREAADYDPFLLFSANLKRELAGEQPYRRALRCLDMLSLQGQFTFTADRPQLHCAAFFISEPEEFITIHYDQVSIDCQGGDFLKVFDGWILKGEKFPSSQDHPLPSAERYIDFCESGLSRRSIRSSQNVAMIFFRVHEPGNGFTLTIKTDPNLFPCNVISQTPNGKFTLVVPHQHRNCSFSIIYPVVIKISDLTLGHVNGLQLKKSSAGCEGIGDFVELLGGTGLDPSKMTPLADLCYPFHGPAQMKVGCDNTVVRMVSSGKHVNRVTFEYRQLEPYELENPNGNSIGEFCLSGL

[6] = molecular target: Long-chain-fatty-acid--AMP ligase FadD28 (Mycobacterium tuberculosis, UniProt P9WQ59); test: Fluorescence polarization aasay to screen for inhibitors that compete for the binding of FadD28 to a bisubstrate Measured in Biochemical System Using Plate Reader - 2147-01_Inhibitor_Dose_CherryPick_Activity.; format: functional, Mycobacterium tuberculosis H37Rv
[7] = molecular target: T3, Interleukin-8 (Homo sapiens, UniProt P10145); test: Dose Response confirmation of uHTS small molecule hits for cystic fibrosis induced NFkb Inhibitors in a PAF-induced IL8 counterscreen.; format: functional; conditions: read-out: IC50_Mean
T3 sequence (P10145 whole entry): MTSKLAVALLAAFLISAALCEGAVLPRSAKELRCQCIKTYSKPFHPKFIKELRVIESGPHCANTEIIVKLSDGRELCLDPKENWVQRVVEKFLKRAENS

[8] = molecular target: Mitogen-activated protein kinase 10 (Homo sapiens, UniProt P53779); test: Dose response biochemical screening assay for inhibitors of c-Jun N-Terminal Kinase 3 (JNK3). [Related pubchem assays: 746 ]
[9] = molecular target: Protein Wnt-3a (Mus musculus, UniProt P27467); test: antagonism of Wnt3a pathway luciferase reporter – Wnt-LIGHT cells, luminescence, selectivity assay for Gli-SUFU antagonist project, dose response (AID 651570); format: functional; conditions: read-out: IC50_Mean;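 further: Wnt-LIGHT reporter cells stimulated with conditioned medium from Wnt3a-producing cells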
[10] = molecular target: T4, Orexin receptor type 2 (Homo sapiens, UniProt O43614); test: Counterscreen assay for antagonists of the orexin 1 receptor (OX1R; HCRTR1): Homogeneous Time Resolved Fluorescence (HTRF)-based cell-based dose response assay for antagonists of the orexin 2 receptor (OX2R; HCRTR2), run by assay provider.; format: functional
T4 sequence (O43614 whole entry): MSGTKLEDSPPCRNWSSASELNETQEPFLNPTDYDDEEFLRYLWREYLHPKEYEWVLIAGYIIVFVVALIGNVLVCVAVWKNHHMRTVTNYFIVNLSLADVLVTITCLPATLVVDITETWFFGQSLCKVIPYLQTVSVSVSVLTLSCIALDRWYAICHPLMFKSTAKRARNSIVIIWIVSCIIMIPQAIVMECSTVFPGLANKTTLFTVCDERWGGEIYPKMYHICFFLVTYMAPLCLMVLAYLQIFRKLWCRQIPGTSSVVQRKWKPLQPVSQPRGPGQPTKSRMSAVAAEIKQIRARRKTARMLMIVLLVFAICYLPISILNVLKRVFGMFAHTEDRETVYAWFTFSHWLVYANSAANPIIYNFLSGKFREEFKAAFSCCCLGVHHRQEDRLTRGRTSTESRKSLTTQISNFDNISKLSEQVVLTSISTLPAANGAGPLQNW

[11] = test system: CHO-K1; test: (§1) Counterscreen for antagonists of the orexin 1 receptor (OX1R; HCRTR1): Homogeneous time resolved fluorescence (HTRF)-based cell-based dose response assay to identify antagonists of the parental CHO-K1 cell line. [Related pubchem assays (depositor defined):AID434989, AID435008, AID463079, AID485270, AID492963, AID492964, AID492965, AID493232, AID504699, AID504701]; format: functional; conditions: Cricetulus griseus
[12] = molecular target: T5, Orexin/Hypocretin receptor type 1 (Homo sapiens, UniProt O43613); test: Homogeneous Time Resolved Fluorescence (HTRF)-based cell-based high throughput dose response assay for antagonists of the orexin 1 receptor (OX1R; HCRTR1). [Related pubchem assays (depositor defined):AID434989, AID435008, AID463079, AID485270, AID492963, AID492964, AID492965, AID493232, AID504717, AID504718]; format: functional
T5 sequence (O43613 whole entry): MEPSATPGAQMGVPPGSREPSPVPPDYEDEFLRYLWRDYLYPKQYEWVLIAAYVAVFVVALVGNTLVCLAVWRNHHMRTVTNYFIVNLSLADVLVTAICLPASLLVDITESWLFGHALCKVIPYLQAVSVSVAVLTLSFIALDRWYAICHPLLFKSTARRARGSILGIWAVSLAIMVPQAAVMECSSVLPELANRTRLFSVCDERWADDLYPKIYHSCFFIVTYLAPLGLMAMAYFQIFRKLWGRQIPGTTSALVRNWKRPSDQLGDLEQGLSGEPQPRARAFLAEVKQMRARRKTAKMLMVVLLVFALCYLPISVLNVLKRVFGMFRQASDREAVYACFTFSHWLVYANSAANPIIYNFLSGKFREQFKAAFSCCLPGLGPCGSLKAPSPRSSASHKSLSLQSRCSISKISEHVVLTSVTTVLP

[13] = as §1, with “Fluorescence-based” for “Homogeneous time resolved fluorescence (HTRF)-based”, “cell-based high throughput” for “cell-based”, “CHO” for “CHO-K1”; format: functional
[14] = molecular target: T4, Orexin receptor type 2; test: Counterscreen assay for antagonists of the orexin 1 receptor (OX1R; HCRTR1): Fluorescence-based cell-based dose response assay for antagonists of the orexin 2 receptor (OX2R; HCRTR2), run by assay provider.; format: functional
[15] = molecular target: T5, Orexin/Hypocretin receptor type 1; test: Fluorescence-based cell-based high throughput dose response assay for antagonists of the orexin 1 receptor (OX1R; HCRTR1). [Related pubchem assays (depositor defined):AID434989, AID435008, AID463079, AID485270, AID492963, AID492964, AID492965, AID493232, AID504717, AID504718]; format: functional

Long-chain-fatty-acid--AMP ligase FadD28, sequence (P9WQ59 whole entry): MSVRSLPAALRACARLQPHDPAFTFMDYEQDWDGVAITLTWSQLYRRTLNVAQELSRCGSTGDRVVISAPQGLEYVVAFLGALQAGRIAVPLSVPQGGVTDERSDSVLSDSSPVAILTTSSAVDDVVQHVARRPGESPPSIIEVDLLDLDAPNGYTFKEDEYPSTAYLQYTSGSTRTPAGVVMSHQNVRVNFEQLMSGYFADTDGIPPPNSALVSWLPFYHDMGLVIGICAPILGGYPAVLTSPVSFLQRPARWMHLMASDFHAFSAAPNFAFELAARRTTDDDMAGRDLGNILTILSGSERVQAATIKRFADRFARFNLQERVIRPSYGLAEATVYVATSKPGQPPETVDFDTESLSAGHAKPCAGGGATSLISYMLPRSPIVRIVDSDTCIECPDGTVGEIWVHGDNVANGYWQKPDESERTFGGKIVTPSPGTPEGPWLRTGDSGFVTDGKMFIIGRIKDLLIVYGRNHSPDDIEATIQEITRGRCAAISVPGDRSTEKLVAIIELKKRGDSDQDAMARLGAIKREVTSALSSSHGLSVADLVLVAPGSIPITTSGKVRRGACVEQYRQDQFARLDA
Potassium voltage-gated channel subfamily KQT member 2, sequence (O88943 whole entry): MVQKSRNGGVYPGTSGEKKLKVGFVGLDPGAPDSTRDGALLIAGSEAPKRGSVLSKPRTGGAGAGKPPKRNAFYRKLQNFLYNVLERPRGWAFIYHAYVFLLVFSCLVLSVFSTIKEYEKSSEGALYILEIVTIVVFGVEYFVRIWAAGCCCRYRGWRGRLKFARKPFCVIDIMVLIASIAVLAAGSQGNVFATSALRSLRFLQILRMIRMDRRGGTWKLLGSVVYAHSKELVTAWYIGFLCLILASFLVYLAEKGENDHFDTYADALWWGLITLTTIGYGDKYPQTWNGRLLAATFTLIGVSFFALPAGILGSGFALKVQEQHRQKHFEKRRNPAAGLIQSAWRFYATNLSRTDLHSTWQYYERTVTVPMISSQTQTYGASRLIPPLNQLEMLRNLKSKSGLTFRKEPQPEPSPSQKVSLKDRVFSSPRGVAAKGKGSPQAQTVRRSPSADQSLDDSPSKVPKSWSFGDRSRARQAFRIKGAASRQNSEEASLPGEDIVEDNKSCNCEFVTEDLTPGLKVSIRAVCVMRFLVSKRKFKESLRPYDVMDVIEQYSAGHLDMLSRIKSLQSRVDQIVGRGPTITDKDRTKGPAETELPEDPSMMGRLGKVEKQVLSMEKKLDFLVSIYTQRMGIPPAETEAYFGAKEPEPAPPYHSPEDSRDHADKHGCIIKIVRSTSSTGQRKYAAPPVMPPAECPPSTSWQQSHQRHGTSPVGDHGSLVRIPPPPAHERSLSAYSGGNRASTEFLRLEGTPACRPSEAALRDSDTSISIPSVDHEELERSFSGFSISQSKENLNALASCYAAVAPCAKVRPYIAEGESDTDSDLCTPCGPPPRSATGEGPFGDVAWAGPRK
Mitogen-activated protein kinase 10, sequence (P53779 whole entry): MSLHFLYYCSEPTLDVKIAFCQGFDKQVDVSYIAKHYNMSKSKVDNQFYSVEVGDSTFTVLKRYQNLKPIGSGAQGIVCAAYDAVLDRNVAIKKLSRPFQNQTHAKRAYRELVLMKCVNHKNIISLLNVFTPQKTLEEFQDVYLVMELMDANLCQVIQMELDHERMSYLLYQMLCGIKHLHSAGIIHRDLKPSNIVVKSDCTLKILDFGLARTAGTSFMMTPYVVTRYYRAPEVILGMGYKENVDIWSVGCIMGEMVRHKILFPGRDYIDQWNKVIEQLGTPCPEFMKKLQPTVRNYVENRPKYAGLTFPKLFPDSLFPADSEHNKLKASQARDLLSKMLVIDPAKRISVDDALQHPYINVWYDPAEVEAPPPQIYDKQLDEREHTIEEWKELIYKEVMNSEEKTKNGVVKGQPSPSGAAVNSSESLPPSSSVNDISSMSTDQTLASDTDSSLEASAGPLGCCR
Protein Wnt-3a, sequence (P27467 whole entry): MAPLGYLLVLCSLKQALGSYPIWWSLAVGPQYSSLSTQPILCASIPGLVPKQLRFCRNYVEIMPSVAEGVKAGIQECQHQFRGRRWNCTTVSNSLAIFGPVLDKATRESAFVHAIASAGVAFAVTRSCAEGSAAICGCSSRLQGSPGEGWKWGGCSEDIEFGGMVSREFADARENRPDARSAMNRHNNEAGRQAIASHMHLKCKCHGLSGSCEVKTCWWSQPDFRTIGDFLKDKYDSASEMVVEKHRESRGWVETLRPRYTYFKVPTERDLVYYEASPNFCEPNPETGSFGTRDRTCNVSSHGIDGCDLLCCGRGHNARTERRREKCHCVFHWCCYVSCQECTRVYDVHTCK

## O=C(Cc1ccc(Nc2nc3cc(Br)ccc3[nH]2)cc1)NCCc1cccs1
[1]
  IC50: 0.286 µM (active)
[2]
  IC50: 0.163 µM (active)
[3]
  IC50: 27.8 µM (inactive)

## CCC(C(=O)Nc1ccccc1N1CCCC1)c1ccccc1 (stereo unspecified)
[4]
  IC50: 0.161 µM (active)

## O=C1N=C(S)SC1=Cc1ccc(N(CCCl)CCCl)cc1
[5]
  EC50: 5.45 µM (active)
[6]
  AC50: 66.7 µM (active)

## COc1ccc(-c2cnc(N)nc2-c2ccc(OC)cc2O)cc1
[7]
  IC50: 14.6 µM (inactive)
[8]
  IC50: 19.9 µM (not active)

## NC(=O)c1ccccc1OCC(=O)N1CCC(Cc2ccccc2)CC1
[9]
  IC50: 3.28 µM (active)

## Cc1ccc2nc(Nc3ccccc3)c(/C=N/O)c(=O)n2c1
[10]
  IC50: > 50 µM (inactive)
[11]
  IC50: > 66.3 µM (inactive)
[12]
  IC50: 5.11 µM (active)
[13]
  IC50: > 49.8 µM (inactive)
[14]
  IC50: 32.5 µM (inactive)
[15]
  IC50: 9.96 µM (active)

## COC(=O)[C@H](Cc1c[nH]c2ccccc12)NC(=O)CCCc1c[nH]c2ccccc12
[10]
  IC50: 6.41 µM (active)
[11]
  IC50: > 66.2 µM (inactive)
[12]
  IC50: 15.3 µM (inactive)
[13]
  IC50: 17.4 µM (inactive)
[14]
  IC50: 17.2 µM (inactive)
[15]
  IC50: 9.04 µM (active)
